Measured values reported in patent EP3325465B1, “PESTICIDALLY ACTIVE PYRAZOLE DERIVATIVES” (Syngenta Participations AG, priority 2015, dated 2017).
Where two headings read alike, the source gives them in different places.

What was measured:
Assay type in all cases: in vivo
[1] = system: Diabrotica balteata, (Corn root worm); test: Diabrotica balteata maize sprout spray test, L2 larvae; settings: 96 h
Text: (§1) The pesticidal/insecticidal properties of the compounds according to embodiments 1 or 2 can be illustrated via the following tests: Spodoptera littoralis (Egyptian cotton leaf worm) • Cotton leaf discs were placed onto agar in 24-well microtiter plates and sprayed with aqueous test solutions prepared from 10'000 ppm DMSO stock solutions. After drying the leaf discs were infested with five L1 larvae. […] Plutella xylostella (Diamond back moth): 24-well microtiter plates with artificial diet were treated with aqueous test solutions prepared from 10'000 ppm DMSO stock solutions by pipetting. After drying, the plates were infested with L2 larvae (10 to 15 per well). The samples were assessed for mortality and growth inhibition in comparison to untreated samples 5 days after infestation. […] Diabrotica balteata, (Corn root worm) • Maize sprouts placed onto an agar layer in 24-well microtiter plates were treated with aqueous test solutions prepared from 10'000 ppm DMSO stock solutions by spraying. After drying, the plates were infested with L2 larvae (6 to 10 per well). […] Thrips tabaci (Onion thrips): Sunflower leaf discs were placed on agar in 24-well microtiter plates and sprayed with aqueous test solutions prepared from 10'000 ppm DMSO stock solutions. After drying the leaf discs were infested with a thrips population of mixed ages. The samples were assessed for mortality 6 days after infestation. […] Tetranychus urticae (Two-spotted spider mite): Bean leaf discs on agar in 24-well microtiter plates were sprayed with aqueous test solutions prepared from 10'000 ppm DMSO stock solutions. After drying the leaf discs were infested with a mite population of mixed ages. The samples were assessed for mortality on mixed population (mobile stages) 8 days after infestation. […] Euschistus heros (Neotropical Brown Stink Bug): • Two weeks old soybean plants were sprayed in a turn table spray chamber with the diluted spray solutions. After drying 2 soybean seeds were added and plants were infested with 10 N2 nymphs of the neotropical brown stink bug Euschistus heros in plastic test boxes. The samples were assessed for mortality in comparison to untreated samples 5 days after infestation. • The following compounds gave at least 80% mortality of Euschistus heros at an application rate of 12.5 ppm: Compounds 3 , 4 , 8 , 39 , 43 , 44 , 46 , 75 , 76 , 77 , 78 , 79 , 80 , 81 , 82 , 88 , 90 , 93 and 95 . Myzus persicae (Green peach aphid): Sunflower leaf discs were placed on agar in a 24-well microtiter plate and sprayed with test solutions at an application rate of 200 ppm. After drying, the leaf discs were infested with an aphid population of mixed ages. After an incubation period of 6 DAT, samples were checked for mortality. The following compounds gave at least 50% mortality of Myzus persicae: Compounds 3 , 4 , 8 , 43 , 44 , 75 , 76 , 77 , 80 , 81 , 90 and 92 . Myzus persicae (Green peach aphid): • Test compounds were applied by pipette into 24 well plates and mixed with Sucrose solution. Application rate: 12.5ppm. The plates were closed with a stretched parafilm. A plastic stencil with 24 holes is placed onto the plate and infested pea seedlings were placed directly on the Parafilm. The infested plate is closed with a gel blotting paper and another plastic stencil and then turned upside down. […]

[2] = system: Plutella xylostella (Diamond back moth); test: Plutella xylostella artificial diet test, L2 larvae; settings: 120 h, application rate of 200 ppm, mortality and growth inhibition 5 days after infestation
Text: as §1

[3] = system: Spodoptera littoralis (Egyptian cotton leaf worm); test: Spodoptera littoralis cotton leaf disc spray test, L1 larvae; settings: foliar, 72 h
Text: as §1

[4] = system: Tetranychus urticae (Two-spotted spider mite); test: Tetranychus urticae bean leaf disc spray test; settings: foliar, 192 h, application rate of 200 ppm, mortality on mixed population (mobile stages) 8 days after infestation
Text: as §1

[5] = system: Thrips tabaci (Onion thrips); test: Thrips tabaci sunflower leaf disc spray test; settings: foliar, 144 h, application rate of 200 ppm, mortality 6 days after infestation, mixed ages
Text: as §1

[6] = application rate of 200 ppm, 4 days after infestation, L2 larvae, read-out: mortality
[7] = application rate of 200 ppm, 3 days after infestation, L1 larvae, read-out: mortality

Cn1nc(C(F)(F)C(F)(F)F)c(C(F)(F)F)c1-c1noc(-c2ccc(Cl)c(C(=O)NC3CC3)c2)n1 [Compound 9, 2-chloro-N-cyclopropyl-5-[3-[2-methyl-5-(1,1 ,2,2,2-pentafluoroethyl)-4-(trifluoromethyl)pyrazol-3-yl]-1,2,4-oxadiazol-5-yl]benzamide]
≥ 80%: mortality at 200 ppm [1, 6]

Cn1nc(C(F)(F)C(F)(F)F)c(C(F)(F)F)c1-c1nc(-c2ccc(Cl)c(C(=O)NC3CC3)c2)no1 [Compound 21, 2-chloro-N-cyclopropyl-5-[5-[2-methyl-5-(1,1,2,2,2-pentafluoroethyl)-4-(trifluoromethyl)pyrazol-3-yl]-1,2,4-oxadiazol-3-yl]benzamide]
≥ 80%: pest or weed control at 200 ppm [2]

Cn1nc(C(F)(F)C(F)(F)F)c(C(F)(F)F)c1-c1ncn(-c2ccc(Cl)c(C(=O)NC3CC3)c2)n1 [Compound 35, 2-chloro-N-cyclopropyl-5-[3-[2-methyl-5-(1,1,2,2,2-pentafluoroethyl)-4-(trifluoromethyl)pyrazol-3-yl]-1,2,4-triazol-1-yl]benzamide]
≥ 80%: mortality at 200 ppm [3, 7] | pest or weed control at 200 ppm [2]

Cn1nc(-c2c(C(F)(F)F)c(C(F)(F)C(F)(F)F)nn2C)cc1-c1ccc(Cl)c(C(=O)NC2CC2)c1 [Compound 41, 2-chloro-N-cyclopropyl-5-[2-methyl-5-[2-methyl-5-(1,1,2,2,2-pentafluoroethyl)-4-(trifluoromethyl)pyrazol-3-yl]pyrazol-3-yl]benzamide]
≥ 80%: mortality at 200 ppm [1, 6] | mortality at 200 ppm [3, 7] | pest or weed control at 200 ppm [4] | pest or weed control at 200 ppm [5] | pest or weed control at 200 ppm [2]

Cn1nc(C(F)(F)C(F)(F)F)c(C(F)(F)F)c1-c1ncc(-c2ccc(Cl)c(C(=O)NC3CC3)c2)s1 [Compound 47, 2-chloro-N-cyclopropyl-5-[2-[2-methyl-5-(1,1 ,2,2,2-pentafluoroethyl)-4-(trifluoromethyl)pyrazol-3-yl]thiazol-5-yl]benzamide]
≥ 80%: mortality at 200 ppm [1, 6] | mortality at 200 ppm [3, 7] | pest or weed control at 200 ppm [2]

Cn1nc(C(F)(F)C(F)(F)F)c(C(F)(F)F)c1-c1ncc(-c2ccc(Cl)c(C(=O)NC3(C#N)CC3)c2)s1 [Compound 48, 2-chloro-N-(1-cyanocyclopropyl)-5-[2-[2-methyl-5-(1,1,2,2,2-pentafluoroethyl)-4-(trifluoromethyl)pyrazol-3-yl]thiazol-5-yl]benzamide]
≥ 80%: mortality at 200 ppm [1, 6] | mortality at 200 ppm [3, 7] | pest or weed control at 200 ppm [4] | pest or weed control at 200 ppm [5] | pest or weed control at 200 ppm [2]

Cn1nc(C(F)(F)C(F)(F)F)c(C(F)(F)F)c1-c1csc(-c2ccc(Cl)c(C(=O)NC3CC3)c2)n1 [Compound 49, 2-chloro-N-cyclopropyl-5-[4-[2-methyl-5-(1,1 ,2,2,2-pentafluoroethyl)-4-(trifluoromethyl)pyrazol-3-yl]thiazol-2-yl]benzamide]
≥ 80%: mortality at 200 ppm [1, 6] | mortality at 200 ppm [3, 7] | pest or weed control at 200 ppm [2]

Cn1nc(C(F)(F)C(F)(F)F)c(C(F)(F)F)c1-c1nc(-c2ccc(Cl)c(C(=O)NC3CC3)c2)cs1 [Compound 53, 2-chloro-N-cyclopropyl-5-[2-[2-methyl-5-(1,1 ,2,2,2-pentafluoroethyl)-4-(trifluoromethyl)pyrazol-3-yl]thiazol-4-yl]benzamide]
≥ 80%: pest or weed control at 200 ppm [2]

Cn1nc(C(F)(F)C(F)(F)F)c(C(F)(F)F)c1-c1nc(-c2ccc(Cl)c(C(=O)NC3(C#N)CC3)c2)cs1 [Compound 54, 2-chloro-N-(1-cyanocyclopropyl)-5-[2-[2-methyl-5-(1,1,2,2,2-pentafluoroethyl)-4-(trifluoromethyl)pyrazol-3-yl]thiazol-4-yl]benzamide]
≥ 80%: mortality at 200 ppm [1] | mortality at 200 ppm [3] | pest or weed control at 200 ppm [4] | pest or weed control at 200 ppm [5] | pest or weed control at 200 ppm [2]

Cn1nc(C(F)(F)C(F)(F)F)c(C(F)(F)F)c1-c1c[nH]c(-c2ccc(Cl)c(C(=O)NC3(C#N)CC3)c2)n1 [Compound 70, 2-chloro-N-(1-cyanocyclopropyl)-5-[4-[2-methyl-5-(1,1,2,2,2-pentafluoroethyl)-4-(trifluoromethyl)pyrazol-3-yl]-1H-imidazol-2-yl]benzamide]
≥ 80%: pest or weed control at 200 ppm [2]

Cn1nc(C(F)(F)C(F)(F)F)c(C(F)(F)F)c1-c1cc(-c2ccc(Cl)c(C(=O)NC3CC3)c2)[nH]n1 [Compound 73, 2-chloro-N-cyclopropyl-5-[3-[2-methyl-5-(1,1,2,2,2-pentafluoroethyl)-4-(trifluoromethyl)pyrazol-3-yl]-1H-pyrazol-5-yl]benzamide]
≥ 80%: mortality at 200 ppm [3, 7] | pest or weed control at 200 ppm [4]

Cn1nc(C(F)(F)C(F)(F)F)c(C(F)(F)F)c1-c1cc(-c2ccc(Cl)c(C(=O)NCCC(F)(F)F)c2)on1 [Compound 83, 2-chloro-5-[3-[2-methyl-5-(1,1,2,2,2-pentafluoroethyl)-4-(trifluoromethyl)pyrazol-3-yl]isoxazol-5-yl]-N-(3,3,3-trifluoropropyl)benzamide]
≥ 80%: mortality at 200 ppm [1, 6] | mortality at 200 ppm [3, 7] | pest or weed control at 200 ppm [5] | pest or weed control at 200 ppm [2]

Cn1nc(C(F)(F)C(F)(F)F)c(C(F)(F)F)c1-c1cc(-c2ccc(Cl)c(C(=O)NCC=C(Cl)Cl)c2)on1 [Compound 84, 2-chloro-N-(3,3-dichloroallyl)-5-[3-[2-methyl-5-(1,1,2,2,2-pentafluoroethyl)-4-(trifluoromethyl)pyrazol-3-yl]isoxazol-5-yl]benzamide]
≥ 80%: mortality at 200 ppm [1, 6] | pest or weed control at 200 ppm [4] | pest or weed control at 200 ppm [5] | pest or weed control at 200 ppm [2]

Cn1nc(C(F)(F)C(F)(F)F)c(C(F)(F)F)c1-c1cc(-c2ccc(Cl)c(C(=O)Nc3ccc(Cl)cc3)c2)on1 [Compound 85, 2-chloro-N-(4-chlorophenyl)-5-[3-[2-methyl-5-(1,1,2,2,2-pentafluoroethyl)-4-(trifluoromethyl)pyrazol-3-yl]isoxazol-5-yl]benzamide]
≥ 80%: pest or weed control at 200 ppm [4]

C=C(F)CNC(=O)c1cc(-c2cc(-c3c(C(F)(F)F)c(C(F)(F)C(F)(F)F)nn3C)no2)ccc1Cl [Compound 86, 2-ch loro-N-(2-fluoroallyl)-5-[3-[2-methyl-5-(1,1,2,2,2-pentafluoroethyl)-4-(trifluoromethyl)pyrazol-3-yl]isoxazol-5-yl]benzamide]
≥ 80%: mortality at 200 ppm [1, 6] | mortality at 200 ppm [3, 7] | pest or weed control at 200 ppm [4] | pest or weed control at 200 ppm [5] | pest or weed control at 200 ppm [2]

CC(C)CNC(=O)c1cc(-c2cc(-c3c(C(F)(F)F)c(C(F)(F)C(F)(F)F)nn3C)no2)ccc1Cl [Compound 87, 2-chloro-N-isobutyl-5-[3-[2-methyl-5-(1,1,2,2,2-pentafluoroethyl)-4-(trifluoromethyl)pyrazol-3-yl]isoxazol-5-yl]benzamide]
≥ 80%: mortality at 200 ppm [1, 6] | mortality at 200 ppm [3, 7] | pest or weed control at 200 ppm [4] | pest or weed control at 200 ppm [5] | pest or weed control at 200 ppm [2]

Cn1nc(C(F)(F)C(F)(F)F)c(C(F)(F)F)c1-c1cc(-c2ccc(Cl)c(C(=O)NCc3ccccc3)c2)on1 [Compound 91, N-benzyl-2-chloro-5-[3-[2-methyl-5-(1,1,2,2,2-pentafluoroethyl)-4-(trifluoromethyl)pyrazol-3-yl]isoxazol-5-yl]benzamide]
≥ 80%: mortality at 200 ppm [1, 6] | pest or weed control at 200 ppm [4] | pest or weed control at 200 ppm [5] | pest or weed control at 200 ppm [2]
